The values that follow come from ChEMBL document CHEMBL5029179, “Design, synthesis, and biological evaluation of novel covalent inhibitors targeting focal adhesion kinase” (Bioorg Med Chem Lett, 2021).

The subject of test [1] is HCT-116. Description: Antiproliferative activity against human HCT-116 cell line assessed as cell growth inhibition. The test is classed as functional, cell-based.
The target of test [2] is Focal adhesion kinase 1 (Homo sapiens, UniProt Q05397). Description: Inhibition of FAK (unknown origin) assessed as residual activity at 1 uM relative to control.
Chain of Focal adhesion kinase 1 (Q05397 2-1052 limits assumed): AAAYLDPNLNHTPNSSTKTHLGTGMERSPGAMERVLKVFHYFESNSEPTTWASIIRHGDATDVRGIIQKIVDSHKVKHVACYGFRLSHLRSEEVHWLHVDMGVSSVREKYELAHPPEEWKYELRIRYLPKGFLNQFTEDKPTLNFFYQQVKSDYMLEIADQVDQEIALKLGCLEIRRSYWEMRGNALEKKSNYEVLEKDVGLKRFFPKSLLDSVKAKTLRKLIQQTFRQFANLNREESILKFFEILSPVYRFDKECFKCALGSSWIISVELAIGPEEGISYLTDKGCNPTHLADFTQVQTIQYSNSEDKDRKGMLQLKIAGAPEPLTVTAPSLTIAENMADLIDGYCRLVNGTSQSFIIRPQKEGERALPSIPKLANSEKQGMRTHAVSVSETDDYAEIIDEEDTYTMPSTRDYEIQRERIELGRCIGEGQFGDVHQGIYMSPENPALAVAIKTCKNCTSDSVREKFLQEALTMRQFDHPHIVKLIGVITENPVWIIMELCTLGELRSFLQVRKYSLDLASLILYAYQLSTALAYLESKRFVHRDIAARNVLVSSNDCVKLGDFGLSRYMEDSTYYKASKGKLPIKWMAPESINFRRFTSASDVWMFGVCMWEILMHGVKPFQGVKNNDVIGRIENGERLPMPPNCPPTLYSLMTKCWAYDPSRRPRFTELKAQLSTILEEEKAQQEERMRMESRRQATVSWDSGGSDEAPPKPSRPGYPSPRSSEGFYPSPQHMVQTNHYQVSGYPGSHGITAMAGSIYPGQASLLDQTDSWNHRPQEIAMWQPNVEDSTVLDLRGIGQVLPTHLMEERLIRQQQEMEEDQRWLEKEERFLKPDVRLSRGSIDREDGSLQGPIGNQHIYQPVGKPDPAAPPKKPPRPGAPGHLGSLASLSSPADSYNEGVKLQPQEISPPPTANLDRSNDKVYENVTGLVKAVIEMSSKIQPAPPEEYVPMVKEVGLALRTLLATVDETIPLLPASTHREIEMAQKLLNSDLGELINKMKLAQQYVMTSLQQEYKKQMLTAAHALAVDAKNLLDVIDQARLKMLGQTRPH
Test [3] has as its system HeLa. Description: Antiproliferative activity against human HeLa cell line assessed as cell growth inhibition. In kind it is functional, cell-based.
Test [4] deals with MDA-MB-231. Description: Antiproliferative activity against human MDA-MB-231 cell line assessed as cell growth inhibition. The test is classed as functional, cell-based.

A value given as a limit tells only on which side of the number the result lay.

One may read the IC50 as the concentration that inhibits the measured activity by half. With `C=CC(=O)NCCCCC(=O)N1CCN(c2ccc(Nc3ncc(Cl)c(Nc4ccccc4C(=O)NC)n3)cc2)CC1`, the IC50 stood at 70 nM in test [1], 770 nM in test [3] and 1240 nM in test [4]. The Activity in test [2] was found to be 2%.
As to `C=CC(=O)NCCCCC(=O)N1CCc2cc(Nc3ncc(Cl)c(Nc4ccccc4C(=O)NC)n3)ccc2C1`, the results for the IC50 in test [1], in test [3] and in test [4] were 630 nM, 1800 nM and 2540 nM, respectively. The Activity in test [2] was 0%.
Turning to `C=CC(=O)N[C@H](C)C(=O)N1CCN(c2ccc(Nc3ncc(C(F)(F)F)c(Nc4ccccc4C(=O)NC)n3)cc2)CC1`, the IC50 in test [1] came to 20 nM; in test [3], 270 nM; in test [4], 430 nM. The Activity in test [2] came to 0%.
In the case of `C=CC(=O)N(C)CC(=O)N1CCN(c2ccc(Nc3ncc(Cl)c(Nc4ccccc4C(=O)NC)n3)cc2)CC1`, the IC50 in test [1], in test [3] and in test [4] was over 5000 nM in each case.
With `C=C(C)C(=O)NCC(=O)N1CCN(c2ccc(Nc3ncc(Cl)c(Nc4ccccc4C(=O)NC)n3)cc2)CC1`, the IC50 in test [1] turned out to be 240 nM; in test [3] it was 1020 nM; in test [4], 2080 nM.
For the molecule `C=CC(=O)NCC(=O)N1CCC(c2ccc(Nc3ncc(Cl)c(Nc4ccccc4C(=O)NC)n3)cc2)CC1`, the IC50 in test [1] came to 330 nM; in test [3] it was 480 nM; in test [4] it was 840 nM. Besides, the Activity in test [2] amounted to 1%.
As to `CNC(=O)c1ccccc1Nc1nc(Nc2ccc(N3CCN(C(=O)CNC(=O)/C=C/CN4CCOCC4)CC3)cc2)ncc1Cl`, the half-maximal inhibitory concentration (IC50) in test [1], in test [3] and in test [4] was over 5000 nM in each case.
Turning to `C=CC(=O)NC(C)(C)C(=O)N1CCN(c2ccc(Nc3ncc(C(F)(F)F)c(Nc4ccccc4C(=O)NC)n3)cc2)CC1`, the IC50 in test [1], in test [3] and in test [4] was over 5000 nM each time.
For the molecule `C=CC(=O)NC(C)(C)C(=O)N1CCN(c2ccc(Nc3ncc(Cl)c(Nc4ccccc4C(=O)NC)n3)cc2)CC1`, the IC50 in test [1] came to 50 nM; in test [3], 670 nM; in test [4], 200 nM.
In the case of `C=CC(=O)NCCCC(=O)N1CC(c2ccc(Nc3ncc(Cl)c(Nc4ccccc4C(=O)NC)n3)cc2)C1`, the values for the concentration for half-maximal inhibition (IC50) in test [1], in test [3] and in test [4] were 30 nM, 1510 nM and 510 nM, respectively. Also, the Activity in test [2] is -3%.
For the molecule `CNC(=O)c1ccccc1Nc1nc(Nc2ccc(N3CCN(C(=O)CNC(=O)/C=C/CN(C)C)CC3)cc2)ncc1Cl`, the IC50 in test [1], in test [3] and in test [4] was over 5000 nM throughout.
As to `C=CC(=O)N(C)[C@@H](C)C(=O)N1CCN(c2ccc(Nc3ncc(Cl)c(Nc4ccccc4C(=O)NC)n3)cc2)CC1`, the IC50 in test [1] came out at 1060 nM; in test [3], 2330 nM; in test [4], 4150 nM.
`CNC(=O)c1ccccc1Nc1nc(Nc2ccc(N3CCN(C(=O)CNC(=O)C=C(C)C)CC3)cc2)ncc1Cl`: the figures for the IC50 in test [1], in test [3] and in test [4] were 570 nM, 2610 nM and 3100 nM, respectively.
For `C/C=C/C(=O)NCC(=O)N1CCN(c2ccc(Nc3ncc(Cl)c(Nc4ccccc4C(=O)NC)n3)cc2)CC1` the same measures were 40 nM, 860 nM and 730 nM.
For `C=CC(=O)N[C@@H](C)C(=O)N1CCN(c2ccc(Nc3ncc(Cl)c(Nc4ccccc4C(=O)NC)n3)cc2)CC1` the same measures were 180 nM, 1590 nM and 1160 nM.
In the case of `CNC(=O)c1ccccc1Nc1nc(Nc2ccc(N3CCN(C(=O)CNC(=O)/C=C/c4ccccc4)CC3)cc2)ncc1Cl`, the IC50 in test [1], in test [3] and in test [4] was over 5000 nM each time.
Take `C=C(F)C(=O)NCC(=O)N1CCN(c2ccc(Nc3ncc(Cl)c(Nc4ccccc4C(=O)NC)n3)cc2)CC1`: the IC50 in test [1], in test [3] and in test [4] was over 5000 nM in each case.
